Experimental data as given in patent publication US9006455B2 (Bristol-Myers Squibb Company, priority 2009, dated 2015).
Like-named read-outs stand apart in the source and are kept apart here.

Test system: HCV 1b genotype
Assay: HCV Replicon assay (HCV 1b genotype)
Format: cell-based
Settings: Hepatitis C virus, HCV 1b genotype replicon
Procedure: An HCV Replicon assay was utilized in the present disclosure, and was prepared, conducted and validated as described in commonly owned PCT/US2006/022197 and in O'Boyle et al., Antimicrob. Agents Chemother., 49(4):1346-1353 (April 2005). Assay methods incorporating luciferase reporters have also been used as described (Apath.com).
HCV-neo replicon cells and replicon cells containing resistance substitutions in the NS5A region were used to test the currently described family of compounds. The compounds were determined to have differing degrees of reduced inhibitory activity on cells containing mutations vs. the corresponding inhibitory potency against wild-type cells. Thus, the compounds of the present disclosure can be effective in inhibiting the function of the HCV NS5A protein and are understood to be as effective in combinations as previously described in application PCT/US2006/022197 and commonly owned WO 04/014852. It should be understood that the compounds of the present disclosure can inhibit multiple genotypes of HCV. […] In one embodiment, compounds of the present disclosure are inhibitory versus 1a, 1b, 2a, 2b, 3a, 4a, and 5a genotypes.

[1] = read-out: Range (EC50 values against HCV 1b)

SMILES | EC50 (read-out: EC50) | EC50 [1]
COC(=O)N[C@H](C(=O)N1[C@@H]2C[C@@H]2C[C@H]1c1ncc(-c2cnc3cc(-c4ccc5nc([C@@H]6C[C@H]7C[C@H]7N6C(=O)[C@@H](NC(=O)OC)C6CCOCC6)[nH]c5c4)ccc3n2)[nH]1)C1CCOCC1 [Example 58, Methyl((1S)-2-((1R,3S,5R)-3-(4-(6-(2-((1R,3S,5R)-2-((2S)-2-((methoxycarbonyl)amino)-2-(tetrahydro-2H-pyran-4-yl)acetyl)-2-azabicyclo[3.1.0]hex-3-yl)-1H-benzimidazol-5-yl)-2-quinoxalinyl)-1H-imidazol-2-yl)-2-azabicyclo[3.1.0]hex-2-yl)-2-oxo-1-(tetrahydro-2H-pyran-4-yl)ethyl)carbamate] | 0.849 nM | 0.0101 to 1 nM
COC(=O)N[C@H](C(=O)N1[C@@H]2C[C@@H]2C[C@H]1c1ncc(-c2ccc3nc(-c4ccc5nc([C@@H]6C[C@H]7C[C@H]7N6C(=O)[C@@H](NC(=O)OC)C6CCOCC6)[nH]c5c4)cnc3c2)[nH]1)C1CCOCC1 [Example 53, Methyl((1S)-2-((1R,3S,5R)-3-(4-(2-(2-((1R,3S,5R)-2-((2S)-2-((methoxycarbonyl)amino)-2-(tetrahydro-2H-pyran-4-yl)acetyl)-2-azabicyclo[3.1.0]hex-3-yl)-1H-benzimidazol-5-yl)-6-quinoxalinyl)-1H-imidazol-2-yl)-2-azabicyclo[3.1.0]hex-2-yl)-2-oxo-1-(tetrahydro-2H-pyran-4-yl)ethyl)carbamate] | 1.81 nM | 1.01 to 1000 nM
COC(=O)N[C@H](C(=O)N1CCC[C@H]1c1nc2cc(-c3ccc4ccc(-c5ccc6nc([C@@H]7CCCN7C(=O)[C@@H](NC(=O)OC)C(C)C)[nH]c6c5)cc4c3)ccc2[nH]1)C(C)C [Example 1, Methyl((1S)-1-(((2S)-2-(5-(7-(2-((2S)-1-((2S)-2-((methoxycarbonyl)amino)-3-methylbutanoyl)-2-pyrrolidinyl)-1H-benzimidazol-5-yl)-2-naphthyl)-1H-benzimidazol-2-yl)-1-pyrrolidinyl)carbonyl)-2-methylpropyl)carbamate] |  | 1.01 to 1000 nM
COC(=O)N[C@H](C(=O)N1CCC[C@H]1c1ncc(-c2ccc(-c3ccc4ccc(-c5ccc6nc([C@@H]7CCCN7C(=O)[C@@H](NC(=O)OC)C(C)C)[nH]c6c5)cc4c3)cc2)[nH]1)C(C)C [Example 4, Methyl((1S)-1-(((2S)-2-(4-(4-(7-(2-((2S)-1-((2S)-2-((methoxycarbonyl)amino)-3-methylbutanoyl)-2-pyrrolidinyl)-1H-benzimidazol-5-yl)-2-naphthyl)phenyl)-1H-imidazol-2-yl)-1-pyrrolidinyl)carbonyl)-2-methylpropyl)carbamate] |  | 1.01 to 1000 nM
COC(=O)N[C@H](C(=O)N1[C@@H]2C[C@@H]2C[C@H]1c1ncc(-c2ccc3nc(-c4ccc5nc([C@@H]6C[C@H]7C[C@H]7N6C(=O)[C@@H](NC(=O)OC)C(C)C)[nH]c5c4)cnc3c2)[nH]1)C(C)C [Example 52, Methyl((1S)-1-(((1R,3S,5R)-3-(4-(2-(2-((1R,3S,5R)-2-((2S)-2-((methoxycarbonyl)amino)-3-methylbutanoyl)-2-azabicyclo[3.1.0]hex-3-yl)-1H-benzimidazol-5-yl)-6-quinoxalinyl)-1H-imidazol-2-yl)-2-azabicyclo[3.1.0]hex-2-yl)carbonyl)-2-methylpropyl)carbamate] | 0.0059 nM | 
O=C(OCc1ccccc1)N1CCC[C@H]1c1nc2cc(-c3ccc4cc(-c5cnc6[nH]c([C@@H]7CCCN7C(=O)OCc7ccccc7)nc6c5)ccc4c3)cnc2[nH]1 [Intermediate 114, Benzyl(2S)-2-(6-(6-(2-((2S)-1-((benzyloxy)carbonyl)-2-pyrrolidinyl)-1H-imidazo[4,5-b]pyridin-6-yl)-2-naphthyl)-3H-imidazo[4,5-b]pyridin-2-yl)-1-pyrrolidinecarboxylate] |  | 1.01 to 1000 nM
COC(=O)N[C@H](C(=O)N1[C@@H]2C[C@@H]2C[C@H]1c1ncc(C#Cc2ccc3cc(-c4cnc([C@@H]5C[C@H]6C[C@H]6N5C(=O)[C@@H](NC(=O)OC)C5CCOCC5)[nH]4)ccc3c2)[nH]1)C1CCOCC1 [Example 82, Methyl((1S)-2-((1R,3S,5R)-3-(4-(6-((2-((1R,3S,5R)-2-((2S)-2-((methoxycarbonyl)amino)-2-(tetrahydro-2H-pyran-4-yl)acetyl)-2-azabicyclo[3.1.0]hex-3-yl)-1H-imidazol-4-yl)ethynyl)-2-naphthyl)-1H-imidazol-2-yl)-2-azabicyclo[3.1.0]hex-2-yl)-2-oxo-1-(tetrahydro-2H-pyran-4-yl)ethyl)carbamate] | 0.0422 nM | 0.0101 to 1 nM
CC(C)(C)OC(=O)N1[C@@H]2C[C@@H]2C[C@H]1c1nc2ccc(-c3ccc4nc(-c5ccc6nc([C@@H]7C[C@H]8C[C@H]8N7C(=O)OC(C)(C)C)[nH]c6c5)ccc4c3)cc2[nH]1 [Intermediate 70, tert-Butyl(1R,3S,5R)-3-(5-(2-(2-((1R,3S,5R)-2-(tert-butoxycarbonyl)-2-azabicyclo[3.1.0]hex-3-yl)-1H-benzimidazol-6-yl)-6-quinolinyl)-1H-benzimidazol-2-yl)-2-azabicyclo[3.1.0]hexane-2-carboxylate] |  | 1.01 to 1000 nM
COC(=O)N[C@H](C(=O)N1CCC[C@H]1c1nc2ccc(-c3ccc4cc(-c5ccc6nc([C@@H]7CCCN7C(=O)[C@@H](NC(=O)OC)C(C)C)[nH]c6c5)ccc4c3)cc2[nH]1)C(C)C [Example 2, Methyl((1S)-1-(((2S)-2-(5-(6-(2-((2S)-1-((2S)-2-((methoxycarbonyl)amino)-3-methylbutanoyl)-2-pyrrolidinyl)-1H-benzimidazol-5-yl)-2-naphthyl)-1H-benzimidazol-2-yl)-1-pyrrolidinyl)carbonyl)-2-methylpropyl)carbamate] | 0.00218 nM | 
COC(=O)N[C@H](C(=O)N1[C@H](c2ncc(-c3ccc(-c4ccc5cc(-c6cnc([C@@H]7C[C@@H]8C[C@@H]8N7C(=O)[C@@H](NC(=O)OC)C(C)C)[nH]6)ccc5c4)cc3)[nH]2)C[C@@H]2C[C@@H]21)C(C)C [Example 135, Methyl((1S)-1-(((1S,3S,5S)-3-(4-(4-(6-(2-((1S,3S,5S)-2-((2S)-2-((methoxycarbonyl)amino)-3-methylbutanoyl)-2-azabicyclo[3.1.0]hex-3-yl)-1H-imidazol-4-yl)-2-naphthyl)phenyl)-1H-imidazol-2-yl)-2-azabicyclo[3.1.0]hex-2-yl)carbonyl)-2-methylpropyl)carbamate] |  | 0.0101 to 1 nM
COC(=O)N[C@H](C(=O)N[C@@H](C)c1ncc(-c2ccc(-c3ccc4cc(-c5cnc([C@H](C)NC(=O)[C@@H](NC(=O)OC)C6CCOCC6)[nH]5)ccc4c3)cc2)[nH]1)C1CCOCC1 [Example 125, Methyl((1S)-2-(((1S)-1-(4-(4-(6-(2-((1S)-1-(((2S)-2-((methoxycarbonyl)amino)-2-(tetrahydro-2H-pyran-4-yl)acetyl)amino)ethyl)-1H-imidazol-4-yl)-2-naphthyl)phenyl)-1H-imidazol-2-yl)ethyl)amino)-2-oxo-1-(tetrahydro-2H-pyran-4-yl)ethyl)carbamate] | 0.136 nM | 0.0101 to 1 nM
COC(=O)N[C@H](C(=O)N1[C@@H]2C[C@@H]2C[C@H]1c1ncc(-c2ccc3cc(-c4ccc5nc([C@@H]6C[C@H]7C[C@H]7N6C(=O)[C@@H](NC(=O)OC)C6CCOCC6)[nH]c5c4)ccc3c2)[nH]1)C1CCOCC1 [Example 45, Methyl((1S)-2-((1R,3S,5R)-3-(4-(6-(2-((1R,3S,5R)-2-((2S)-2-((methoxycarbonyl)amino)-2-(tetrahydro-2H-pyran-4-yl)acetyl)-2-azabicyclo[3.1.0]hex-3-yl)-1H-benzimidazol-5-yl)-2-naphthyl)-1H-imidazol-2-yl)-2-azabicyclo[3.1.0]hex-2-yl)-2-oxo-1-(tetrahydro-2H-pyran-4-yl)ethyl)carbamate] |  | 0.0101 to 1 nM
COC(=O)N[C@H](C(=O)N1CCC[C@H]1c1nc2ccc(-c3ccc4cc(-c5ccc6nc([C@@H]7CCCN7C(=O)[C@@H](NC(=O)OC)C7CCOCC7)[nH]c6c5)ccc4c3)cc2[nH]1)C1CCOCC1 [Example 26, Dimethyl(2,6-naphthalenediylbis(1H-benzimidazole-5,2-diyl(2S)-2,1-pyrrolidinediyl((1S)-2-oxo-1-(tetrahydro-2H-pyran-4-yl)-2,1-ethanediyl)))biscarbamate] |  | 0.0101 to 1 nM
CCN(CC)[C@@H](C(=O)N1[C@@H]2C[C@@H]2C[C@H]1c1nc2ccc(-c3ccc4cc(-c5ccc6nc([C@@H]7C[C@H]8C[C@H]8N7C(=O)[C@@H](c7ccccc7)N(CC)CC)[nH]c6c5)ccc4c3)cc2[nH]1)c1ccccc1 [Example 19, (1R)-2-((1R,3S,5R)-3-(5-(6-(2-((1R,3S,5R)-2-((2R)-2-(Diethylamino)-2-phenylacetyl)-2-azabicyclo[3.1.0]hex-3-yl)-1H-benzimidazol-6-yl)-2-naphthyl)-1H-benzimidazol-2-yl)-2-azabicyclo[3.1.0]hex-2-yl)-N,N-diethyl-2-oxo-1-phenylethanamine] |  | 0.0101 to 1 nM
COC(=O)N[C@@H](C(=O)N1CCC[C@H]1c1nc2cc(-c3ccc4ccc(-c5ccc6nc([C@@H]7CCCN7C(=O)[C@H](NC(=O)OC)C(C)C)[nH]c6c5)cc4c3)ccc2[nH]1)C(C)C [Example 14, Methyl((1R)-1-(((2S)-2-(5-(7-(2-((2S)-1-((2R)-2-((methoxycarbonyl)amino)-3-methylbutanoyl)-2-pyrrolidinyl)-1H-benzimidazol-5-yl)-2-naphthyl)-1H-benzimidazol-2-yl)-1-pyrrolidinyl)carbonyl)-2-methylpropyl)carbamate] |  | 1.01 to 1000 nM
